Among the data in ChEMBL document CHEMBL2311530, “The development of potential new fluorine-18 labelled radiotracers for imaging the GABA(A) receptor” (Bioorg Med Chem Lett, 2013) are Ki and logD values, retold here.

Bounds are passed on as bounds.

In general, Ki refers to the equilibrium dissociation constant of an inhibitor or competing ligand from its target. Higher therefore signals a looser hold on the target. Broadly, the logD is lipophilicity at a set pH, counting ionised and neutral species. Lower therefore signals lower lipophilicity.

The nature of data set [1]: Displacement of […]FMZ from Wistar rat cerebellum GABAA receptor by competitive radioligand assay. In kind it is tissue-based.
Data set [2] in a line: Lipophilicity, log D of the compound in n-octanol at pH 7.4 by shake flask method. Format: physicochemical.

Consider `O=C(NCCCF)c1ncn2c1[C@@H]1CCCN1C(=O)c1c(Br)cccc1-2`, for which, in data set [1], the Ki was over 10000 nM.
Molecule `CN1Cc2c(C(=O)NCCCF)ncn2-c2ccc(F)cc2C1=O` gave a Ki in data set [1] of over 10000 nM.
The molecule `CN1Cc2c(C(=O)NCCF)ncn2-c2ccc(F)cc2C1=O` showed a Ki in data set [1] of over 10000 nM.
`CC(C)(C)OC(=O)c1ncn2c1CN(CCF)C(=O)c1cc(F)ccc1-2` yielded a Ki in data set [1] of 8.9 nM.
In turn, `O=C(NCCF)c1ncn2c1[C@@H]1CCCN1C(=O)c1c(Br)cccc1-2` came in with a Ki in data set [1] of over 10000 nM.
With `CN1Cc2c(C(=O)OC(C)(C)C)ncn2-c2cccc(F)c2C1=O`, in data set [1], the affinity corresponds to a Ki of 0.76 nM. Further, the logD in data set [2] worked out at 0.69.
The like results for `CN1Cc2c(C(=O)OCCCF)ncn2-c2ccc(F)cc2C1=O` were, in that order, over 10000 nM and 0.68.
Consider `CN1Cc2c(C(=O)OCCF)ncn2-c2ccc(F)cc2C1=O`, for which the Ki in data set [1] is 4 nM. The logD in data set [2] was determined as 1.12.
In the case of `CCOC(=O)c1ncn2c1CN(CCF)C(=O)c1cc(F)ccc1-2`, the Ki in data set [1] stood at 13.5 nM. Besides, in data set [2], the pH-dependent lipophilicity (logD) stood at 1.54.
On the same counts, the results for `CCOC(=O)c1ncn2c1CN(C)C(=O)c1cc(OCCF)ccc1-2` are 2.3 nM and 1.62.
`CCOC(=O)c1ncn2c1CN(Cc1ccccc1)C(=O)c1cc(F)ccc1-2` showed a Ki in data set [1] of 2.9 nM. In data set [2], this molecule yielded a logD of 1.44.
`CN1Cc2c(C(=O)OC(C)(C)C)ncn2-c2ccc(OCCF)cc2C1=O` had an inhibition constant Ki in data set [1] of 0.52 nM. In addition, in data set [2], the logD was found to be 1.17.
In data set [1], `CN1Cc2c(C(=O)OC(C)(C)C)ncn2-c2nccc(F)c2C1=O` showed a Ki of 1.3 nM.
As for `CCOC(=O)c1ncn2c1CN(C)C(=O)c1c(F)cccc1-2`, in data set [1], the Ki stood at 5.5 nM. The molecule further gave a logD in data set [2] of 1.25.
In turn, `CC(C)OC(=O)c1ncn2c1CN(C)C(=O)c1c(F)cccc1-2` came in with a Ki in data set [1] of 0.42 nM.
As for `O=C(OCCF)c1ncn2c1[C@@H]1CCCN1C(=O)c1c(Br)cccc1-2`, in data set [1], the Ki is 9.4 nM.
`CCOC(=O)c1ncn2c1CN(C)C(=O)c1nc(F)ccc1-2` came in with a Ki in data set [1] of 14 nM.
Same read-out and setting: to `CN1Cc2c(C(=O)OC(C)(C)C)ncn2-c2ccc(F)cc2C1=O` belongs 1.9 nM.
Consider `O=C(OCCCF)c1ncn2c1[C@@H]1CCCN1C(=O)c1c(Br)cccc1-2`, for which, in data set [1], the Ki is 3.2 nM.
Consider `CCOC(=O)c1ncn2c1CN(CC)C(=O)c1cc(F)ccc1-2`, for which the Ki in data set [1] came out at 10.7 nM. Further, the logD in data set [2] amounted to 1.65.
In data set [1], `CN1Cc2c(C(=O)OC(C)(C)C)ncn2-c2cccc(OCCF)c2C1=O` gave a Ki of 1.1 nM.
As to `CCOC(=O)c1ncn2c1CN(C)C(=O)c1cc(F)ccc1-2` [FLUMAZENIL], the affinity in data set [1] corresponds to a Ki of 1.3 nM. The molecule further had a logD in data set [2] of 1.58.
In data set [1], `CC(C)(C)OC(=O)c1ncn2c1[C@@H]1CCCN1C(=O)c1c(Br)cccc1-2` [BRETAZENIL] showed a Ki of 0.3 nM.
Consider `CN1Cc2c(C(=O)OC(C)(C)C)ncn2-c2ccnc(F)c2C1=O`, for which the Ki in data set [1] came out at 3.9 nM.
In the case of `CCOC(=O)c1ncn2c1[C@@H]1CCCN1C(=O)c1cc(F)ccc1-2`, the Ki in data set [1] stood at 2.3 nM. In data set [2], the logD was found to be 1.85.
